From ChEMBL document CHEMBL1143225, “Neurosteroid analogues. 14. Alternative ring system scaffolds: GABA modulatory and anesthetic actions of cyclopenta[b]phenanthrenes and cyclopenta[b]anthracenes” (J Med Chem, 2008)
The source made the active and inactive calls. No cut-off for these calls is given here.

Legend:
Oocyte [1] = assay: Activity at rat GABAA alpha-1-beta-2-gamma-2L receptor expressed in Xenopus lavies oocytes assessed as ratio of effect on current at 10 uM drug to absence of compound by electrophysiology method; format: cell-based
Xenopus laevis [2] = assay: Anesthetic effect on Xenopus lavies tadpole assessed as loss of swimming reflex; format: functional
Oocyte [3] = assay: Activity at rat GABAA alpha-1-beta-2-gamma-2L receptor expressed in Xenopus laevis oocytes assessed as gating effect at 10 uM by electrophysiology method; format: cell-based
[4] = Displacement of [35S]TBPS from GABAA receptor in rat brain membrane; format: cell membranes
Oocyte [5] = assay: Activity at rat GABAA alpha-1-beta-2-gamma-2L receptor expressed in Xenopus lavies oocytes assessed as ratio of effect on current at 0.1 uM drug to absence of compound by electrophysiology method; format: cell-based
Xenopus laevis [6] = assay: Anesthetic effect on Xenopus lavies tadpole assessed as loss of righting reflex; format: functional
Oocyte [7] = assay: Activity at rat GABAA alpha-1-beta-2-gamma-2L receptor expressed in Xenopus lavies oocytes assessed as ratio of effect on current at 1 uM drug to absence of compound by electrophysiology method; format: cell-based
HEK293 [8] = assay: (§1) Activity at rat GABAA alpha-1-beta-2-gamma-2L receptor expressed in HEK293 cells assessed as macroscopic current amplitude by electrophysiological method; format: cell-based
[9] = as §1; format: cell-based
HEK293 [10] = assay: (§2) Activity at rat GABAA alpha-1Q241L/Y410F receptor mutant expressed in HEK293 cells assessed as macroscopic current amplitude by electrophysiological method; format: cell-based
[11] = as §2; format: cell-based
Xenopus laevis [12] = assay: Anesthetic effect on Xenopus lavies tadpole assessed as loss of swimming reflex at 10 uM; format: functional, organism-based

| SMILES | Ratio (Oocyte [1]) | ED50 (Xenopus laevis [2]) [µM] | Ratio (Oocyte [3]) | IC50 [4] [µM] | Ratio (Oocyte [5]) | ED50 (Xenopus laevis [6]) [µM] | Ratio (Oocyte [7]) | Activity (HEK293 [8]) [%] | EC50 [9] [µM] | Activity (HEK293 [10]) [%] | EC50 [11] [µM] | Activity (Xenopus laevis [12]) |
| --- | --- | --- | --- | --- | --- | --- | --- | --- | --- | --- | --- | --- |
| C[C@]12C[C@H]3CC[C@@H]4C[C@@H](O)CC[C@H]4[C@@H]3C[C@@H]1CC[C@@]21CO1 | 29.7 | 0.87 | 0.15 | 0.04 | 2.16 | 0.2 | 15.7 | 262 | 0.34 | 220 | 0.13 | – |
| C[C@]12CC[C@@H](O)C[C@@H]1CC[C@@H]1[C@@H]2CC[C@]2(C)C(=O)CC[C@@H]12 [ANDROSTERONE] | 5.44 | – | 0.02 | 0.41 | 0.97 | 3.38 | 1.41 | – | – | – | – | inactive |
| C[C@]12C[C@H]3C[C@H]4CC[C@@H](O)C[C@@H]4C[C@@H]3C[C@@H]1CCC2=O | 28.4 | 5.48 | 0.28 | 0.25 | 1.1 | 1.86 | 5.03 | – | – | – | – | – |
| C[C@]12CC[C@@H](O)C[C@@H]1CC[C@@H]1[C@@H]2CC[C@@]2(C)[C@H]1CC[C@@]21CO1 | 33.7 | 2.76 | 0.22 | 0.11 | 3.11 | 1.35 | 21.9 | 269 | 0.44 | 251 | 0.13 | – |
| C[C@]12C[C@H]3CC[C@@H]4C[C@@H](O)CC[C@H]4[C@@H]3C[C@@H]1CCC2=O | 6.14 | – | 0.05 | 1.44 | 0.92 | 3.17 | 1.32 | – | – | – | – | inactive |
| C[C@]12CC[C@@H]3C[C@H](CCO)CC[C@H]3[C@@H]1CCC2=O | 1.05 | – | 0.03 | 4.17 | 0.99 | 16.4 | 1.03 | – | – | – | – | inactive |
| C[C@]12CC[C@@H]3C[C@H](CCO)CC[C@H]3[C@@H]1CC[C@@]21CO1 | 20 | 5.48 | 0.04 | 1.58 | 1.1 | 3.17 | 4.11 | – | – | – | – | – |
| C[C@]12C[C@H]3CC[C@H](CCO)C[C@@H]3C[C@@H]1CC[C@@]21CO1 | 5.37 | – | 0.03 | 1.17 | 0.86 | 3.46 | 1.54 | – | – | – | – | inactive |
| C[C@]12C[C@H]3C[C@H]4CC[C@@H](O)C[C@@H]4C[C@@H]3C[C@@H]1CC[C@@]21CO1 | 26.3 | 1.73 | 0.16 | 0.06 | 1.53 | 0.48 | 10.8 | 294 | 0.41 | 237 | 0.39 | – |
| C[C@]12C[C@H]3CC[C@H](CCO)C[C@@H]3C[C@@H]1CCC2=O | 2.42 | – | -0.02 | 5.01 | 1 | 4.01 | 1 | – | – | – | – | inactive |
